Measurements reported in patent publication US10682388B2, “Targeting of PELP1 in cancer therapy” (THE BOARD OF REGENTS OF THE UNIVERSITY OF TEXAS SYSTEM, priority 2014, dated 2020).
Entries after “also recorded” stand apart in the source; their conditions may differ.

Experiments:
[1] = molecular target: T1, PELP1, G9a and ERα complex (Homo sapiens, UniProt Q8IZL8); experiment: Competition assay for the complex of PELP1, G9a and ERα; assay type: binding; details: FIG. 2C
T1 construct: purified bacterial, full-length PELP1; host or cells: bacteria (PELP1)
T1 sequence (Q8IZL8 2-1130, one chain of several): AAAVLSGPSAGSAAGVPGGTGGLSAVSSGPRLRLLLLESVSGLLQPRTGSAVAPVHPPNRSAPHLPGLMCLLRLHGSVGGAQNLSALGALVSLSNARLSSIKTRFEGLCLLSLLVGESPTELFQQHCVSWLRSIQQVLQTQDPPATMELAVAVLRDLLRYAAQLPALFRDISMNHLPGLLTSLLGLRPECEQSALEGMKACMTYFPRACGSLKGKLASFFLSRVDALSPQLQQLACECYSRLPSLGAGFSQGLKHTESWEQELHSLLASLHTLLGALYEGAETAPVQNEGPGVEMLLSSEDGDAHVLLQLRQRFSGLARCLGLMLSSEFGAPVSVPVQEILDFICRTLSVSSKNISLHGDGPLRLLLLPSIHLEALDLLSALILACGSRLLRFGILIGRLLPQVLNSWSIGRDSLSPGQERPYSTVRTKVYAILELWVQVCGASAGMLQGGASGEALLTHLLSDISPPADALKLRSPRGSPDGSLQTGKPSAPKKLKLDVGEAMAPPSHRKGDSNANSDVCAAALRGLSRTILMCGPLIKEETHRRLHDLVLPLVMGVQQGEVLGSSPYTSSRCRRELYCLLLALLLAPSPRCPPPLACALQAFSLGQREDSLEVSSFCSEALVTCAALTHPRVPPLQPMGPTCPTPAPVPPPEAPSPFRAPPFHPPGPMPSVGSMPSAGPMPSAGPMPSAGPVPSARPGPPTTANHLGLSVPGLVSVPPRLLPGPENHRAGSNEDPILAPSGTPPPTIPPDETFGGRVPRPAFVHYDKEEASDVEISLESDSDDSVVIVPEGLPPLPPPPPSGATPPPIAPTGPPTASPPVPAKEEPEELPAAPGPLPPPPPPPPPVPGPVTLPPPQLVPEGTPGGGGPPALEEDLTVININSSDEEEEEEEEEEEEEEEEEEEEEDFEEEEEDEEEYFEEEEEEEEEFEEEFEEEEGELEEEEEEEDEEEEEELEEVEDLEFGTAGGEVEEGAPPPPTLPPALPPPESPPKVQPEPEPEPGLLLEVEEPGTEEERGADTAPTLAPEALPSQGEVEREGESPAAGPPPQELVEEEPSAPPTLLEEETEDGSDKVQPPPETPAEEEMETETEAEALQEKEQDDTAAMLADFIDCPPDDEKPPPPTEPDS
Experimental: FIGS. 2A-D. (FIG. 2A) Immunoprecipitation was performed on nuclear lysates obtained from […]1 cells grown in 5% DCC for 72 hours and treated with estradiol 10^-7 M for 12 hours. PELP1 was immunoprecipitated and western blotting was performed for PELP1 and G9a expression with IgG as the control. (FIG. 2B) Various fragments of PELP1 bound to glutathione beads were incubated with recombinant G9a for 2 hours. Beads were washed, run on an SDS-PAGE gel and immunoblotted for G9a expression. GST tag alone is shown as control. (FIG. 2C) Recombinant G9a-GST was bound to glutathione beads and incubated with purified PELP1 and peptides for 2 hours. Beads were washed and run on SDS-PAGE gel. (FIG. 2D) ZR75 cells were transfected with ERE-luciferase, PELP1 and/or G9a plasmids and treated with peptide for 24 hours and estradiol 10^-7 M for 12 hours. Relative luciferase activity is shown. Peptides were linked to EZ-Link NHS-Biotin (Thermo Scientific) per manutfacturer's protocol. […] Beads were washed 3× with IP buffer (20 mM HEPES pH 7.9, 20% glycerol, 0.1% triton-x, 100 mM KCl), eluted with SDS-dye, and PELP1 expression was determined by western blotting. […]

[2] = system: ZR75PELP1KD and MCF7PEP1KD cells; experiment: MTT proliferation assay in PELP1 knockdown cells; assay type: cell-based, Human; details: increasing doses 10, 20, or 50 μM, day 7, FIGS. 8A-B
Experimental: FIGS. 8A-C. (FIG. 8A) ZR75PELP1KD cells were treated in triplicate with TAT or PIP1 (10, 20, or 50 μM) every 3 days and proliferation was measured by MTT assay on day 7. (FIG. 8B) MCF7PELP1KD cells were treated in triplicate with TAT or PIP1 (10, 20, or 50 μM) every 3 days and proliferation was measured by MTT assay on day 7. (FIG. 8C) MDAMB231 and MDAMB468 cells were treated in triplicate with TAT or PIP1 (10 μM) every 3 days and proliferation was measured by MTT assay on day 7. Cell proliferation rates were measured by using MTT Cell Viability Assay in 96-well plates. Model cells were seeded in 96-well plates (1×10^3 cells/well) in DMEM or RPMI medium containing 10% serum. After an overnight incubation, cells were treated with varying concentrations of the peptides for 3-7 days and growth inhibition was determined by using traditional MTT assay (Sigma) following manufacturer's instructions.

ZR75 cells = experiment: Estrogen-mediated growth, MTT assay; assay type: cell-based, Human; details: ZR75 cells stimulated with estradiol, FIG. 4C
Experimental: FIGS. 4A-E. (FIG. 4A) ZR75vec, ZR75PELP1, MCF7vec and MCF7PELP1 cells were treated in triplicate with TAT, PIP1 or PIP1 deletions (Del1, Del2, Del3) at 10 uM every 3 days and proliferation was measured by MTT assay on day 7. (FIG. 4B) ZRPELP1 cells were transfected with ERE-luciferase and treated with TAT, PIP1, or PIP2 for 24 hours and with estradiol for 12 hours. Relative luciferase activity was measured in triplicate. (FIG. 4C) ZR75 cells were grown in 5% DCC media for 72 hours, treated with TAT or PIP1 every 3 days, and treated with estradiol 10^−7 M for 12 hours. Proliferation was measured in triplicate on day 7 by MTT assay at 595 nm. (FIG. 4D) MCF7-Letrozole resistant cells were grown in 5% DCC media for 72 hours, treated with TAT, PIP1 or PIP2 every 3 days, and letrozole or estradiol 10^−7 M for 12 hours. Proliferation was measured in triplicate on day 7 by MTT assay at 595 nm. […] Proliferation was measured in triplicate on day 7 by MTT assay at 595 nm.
Cell proliferation rates were measured by using MTT Cell Viability Assay in 96-well plates. […] After an overnight incubation, cells were treated with varying concentrations of the peptides for 3-7 days and growth inhibition was determined by using traditional MTT assay (Sigma) following manufacturer's instructions.

[3] = system: Beta-catenin reporter in ZRGST and ZRPELP1GST cells; experiment: TopFlash β-catenin reporter assay; assay type: cell-based; details: 10 μM, 24 hours, independent of ERα, FIG. 7C
Experimental: FIGS. 7A-E. (FIG. 7A) Bacterial purified PELP1 was incubated with biotin-tagged peptides bound to avidin beads for one hour. Beads were washed, run on SDS-PAGE gel and probed for PELP1 expression. Input of bacterial PELP1 is shown as control. (FIG. 7B) Recombinant G9a-GST was bound to glutathione beads and incubated with purified PELP1 and peptides for 2 hours. Beads were washed and run on SDS-PAGE gel. (+2 μM, ++5 μM, +++10 μM). (FIG. 7C) ZRGST and ZRPELP1GST cells were transfected in triplicate with TopFlash β-catenin reporter and treated with TAT or PIP1 (10 μM) for 24 hours. Relative luciferase activity is shown. (FIG. 7D) MCF7vec and MCF7PELP1 cells were treated with TAT or PIP1 (10 μM) and toxicity was measured by CytoTox-Flour Cytotoxicity Assay. (FIG. 7E) ZR75 and ZR75PELP1 cells were treated with TAT, PIP1 or PIP2 for 24 hours and immunoblotted for PELP1 and ERα expression with actin as the loading control.

BG1 cells = experiment: Ovarian cancer cell proliferation; assay type: cell-based; details: BG1, FIG. 14
Experimental: FIG. 14. […] Cell proliferation rates were measured by using MTT Cell Viability Assay in 96-well plates. Model cells were seeded in 96-well plates (1×10^3 cells/well) in DMEM or RPMI medium containing 10% serum. After an overnight incubation, cells were treated with varying concentrations of the peptides for 3-7 days and growth inhibition was determined by using traditional MTT assay (Sigma) following manufacturer's instructions.

## GRKKRRQRRRGGMVEFRWSCPGRRKAKA [PIP1]
[1]
  formation of PELP1, G9a and ERα complex: prevents the three proteins from forming a complex
[2]
  proliferation in PELP1 knockdown cells: only saw an effect at very high concentrations
ZR75 cells
  estrogen-mediated growth: inhibition of the estrogen-mediated growth
[3]
  Beta-catenin reporter activity: no significant effect on reporter activity
BG1 cells
  proliferation of ovarian cancer cells: dose-dependent decrease in the proliferation; also recorded: inhibits proliferation of ovarian cancer cells
